Assay results from US9555053B2, “Use of oligosaccharide compounds for the prevention and treatment of pathological scars” (LABORATOIRES URGO, priority 2011, dated 2017).

Assays:
Format in all cases: cell-based
[1] = test system: α-SMA expression in normal human dermal fibroblasts (NHDFs); experiment: Inhibition of TGF-β-induced differentiation of fibroblasts into myofibroblasts: α-SMA expression by quantitative RT-PCR and Western blot; conditions: NHDF cultures, TGF-β 10 ng/ml, KSOS 2 mg/ml, D4
Method: (§1) Cultures of normal human dermal fibroblasts (NHDFs) were prepared in DMEM/F12 culture medium (sold by the company Invitrogen) supplemented with 10% of fetal calf serum (sold by the company Invitrogen), with 5 μg/ml of insulin (sold by the company Promokine) and with 1 ng/ml of bFGF (sold by the company Promokine).
(§2) For this, the NHDF cultures were placed in a P100 dish coated with collagen at 5 μg/ml in DMEM/F12 medium supplemented with 10% of fetal calf serum and supplemented with 10 ng/ml of TGF-β(sold by the company Promocell), which is a growth factor that controls cell proliferation and differentiation (differentiated control in FIG. 1).
(§3) A nondifferentiated control was also prepared using cultures in DMEM/F12 supplemented with 10% calf serum without TGF-β.
(§4) The KSOS was added to the control and differentiated-control cultures to determine its effect on differentiation, in a proportion of 2 mg/ml.
(§5) The results were analyzed after 4 days of culture.
For the measurement of the inhibitory effect of the compound according to the invention, KSOS was added at 2 mg/ml to the cultures undergoing differentiation. • By quantitative RT-PCR: the mRNA was extracted using the Trizol, chloroform and isopropanol method. • By the Western blot method: total cell extracts were prepared and a Western blot was carried out. […]

[2] = test system: collagen lattices seeded with normal human dermal fibroblasts (NHDFs); experiment: Collagen lattice retraction (area of collagen lattices seeded with NHDFs); conditions: for % relative to the control: lattice area relative to control without dressing
Method: The collagen lattices were obtained by seeding 0.8×10^6 normal human dermal fibroblasts (NHDFs) in a gel of collagen type I with a final concentration of 1.3 mg/ml.
A dressing (sold under the trade name Urgotul Start) comprising 7.5% of the potassium salt of sucrose octasulfate was applied to the surface of the collagen lattices.
A control series, without dressing, was carried out in order to evaluate the normal contraction of the collagen gel by the seeded NHDFs.
Likewise, a positive control was carried out by adding TGF-β at a concentration of 10 ng/ml in order to visualize the strong contraction induced by the NHDFs highly differentiated into myofibroblasts.
The incubation was maintained up to 7 days.
The effects of the potassium salt of sucrose octasulfate on the retraction of the collagen lattices was observed by means of photographic analysis (FIG. 2) and image analysis measurement of the area of the lattices once contracted.

[3] = test system: normal human dermal fibroblasts (NHDFs); experiment: Differentiation of fibroblasts into myofibroblasts: α-SMA immunofluorescence and counting of differentiated cells; conditions: NHDF cultures, TGF-β 10 ng/ml, KSOS 2 mg/ml, 4 days of culture
Method: as §1, §2, §3, §4, §5
The cells were fixed with 4% formaldehyde and permeabilized with Triton. The immunolabeling is carried out using DAPI staining (which gives a blue color) for the cell nuclei, a rabbit anti-α-SMA antibody and an anti-rabbit secondary antibody coupled to Cys3 (sold by Promega).
The number of differentiated cells over the total number of cells is determined by cell counting. […]

TGF-β
α-SMA expression (mRNA by quantitative RT-PCR, protein by Western blot) [1]: induction of α-SMA expression | Average of the areas ([2]; Day 1): 217.3 mm^2 | % relative to the control ([2]; Day 1): 95% | Average of the areas ([2]; Day 4): 145.9 mm^2 | % relative to the control ([2]; Day 4): 76% | Average of the areas ([2]; Day 7): 97 mm^2 | % relative to the control ([2]; Day 7): 56%

O=S(=O)([O-])OC[C@H]1O[C@@](COS(=O)(=O)[O-])(O[C@H]2O[C@H](COS(=O)(=O)[O-])[C@@H](OS(=O)(=O)[O-])[C@H](OS(=O)(=O)[O-])[C@H]2OS(=O)(=O)[O-])[C@@H](OS(=O)(=O)[O-])[C@@H]1OS(=O)(=O)[O-].[K+].[K+].[K+].[K+].[K+].[K+].[K+].[K+] [KSOS, potassium salt of sucrose octasulfate]
α-SMA expression (mRNA by quantitative RT-PCR, protein by Western blot) [1]: inhibition of this induction | contraction of the collagen lattices (in words) ([2]; between day 1 and day 7): limits the contraction of the collagen lattices | differentiation of fibroblasts into myofibroblasts (differentiated cells expressing α-SMA, immunofluorescence) [3]: inhibition of the differentiation
